Consider 26 compounds from patent US10287269B2, “Pyrazolyl pyrimidinone compounds as PDE2 inhibitors” (Merck Sharp & Dohme Corp., priority 2015, dated 2019).

Each structure is given as a SMILES string. Read-outs that look alike come from different tables or passages of the source.

The target of this assay is T1, Rhesus PDE2A3 (Macaca mulatta, UniProt B3VTJ2).
T1 construct: made in house; host or cells: AD293 cells, transient transfection, pcDNA3.3-TOPO; lysate supernatant used as enzyme
T1 sequence (B3VTJ2 1-941): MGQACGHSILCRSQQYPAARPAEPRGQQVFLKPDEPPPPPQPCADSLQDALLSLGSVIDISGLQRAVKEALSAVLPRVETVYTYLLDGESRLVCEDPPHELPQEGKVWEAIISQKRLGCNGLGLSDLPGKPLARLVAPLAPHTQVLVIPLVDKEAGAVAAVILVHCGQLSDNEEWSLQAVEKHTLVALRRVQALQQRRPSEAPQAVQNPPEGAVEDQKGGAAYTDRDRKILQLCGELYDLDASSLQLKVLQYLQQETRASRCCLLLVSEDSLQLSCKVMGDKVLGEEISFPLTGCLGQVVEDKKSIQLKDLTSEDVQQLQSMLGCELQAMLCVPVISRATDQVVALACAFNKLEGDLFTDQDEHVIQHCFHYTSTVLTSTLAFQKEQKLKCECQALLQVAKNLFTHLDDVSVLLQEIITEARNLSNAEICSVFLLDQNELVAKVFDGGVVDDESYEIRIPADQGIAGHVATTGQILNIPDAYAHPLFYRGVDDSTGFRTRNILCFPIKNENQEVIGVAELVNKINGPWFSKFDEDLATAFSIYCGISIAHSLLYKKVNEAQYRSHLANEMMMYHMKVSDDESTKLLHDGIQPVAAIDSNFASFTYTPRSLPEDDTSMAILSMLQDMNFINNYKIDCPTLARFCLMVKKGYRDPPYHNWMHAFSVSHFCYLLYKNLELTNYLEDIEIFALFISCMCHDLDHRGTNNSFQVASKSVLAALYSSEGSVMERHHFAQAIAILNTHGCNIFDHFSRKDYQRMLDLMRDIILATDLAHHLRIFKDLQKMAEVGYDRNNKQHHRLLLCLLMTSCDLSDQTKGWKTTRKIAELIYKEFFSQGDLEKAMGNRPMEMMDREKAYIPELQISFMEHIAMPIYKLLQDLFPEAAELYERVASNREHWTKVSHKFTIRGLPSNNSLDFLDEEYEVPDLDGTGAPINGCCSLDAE
Put plainly: PDE2 fluorescence polarization (IMAP FP) inhibition assay, rhesus enzyme. The assay is classed as biochemical, rhesus macaque. Summed up: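 Lysate of AD293 cells transiently expressing rhesus PDE2A3, diluted for ~20% substrate conversion, with 50 nM FAM-cAMP and 1 uM cGMP activator in pH 7.2 Tris/MgCl2 buffer, 60 min at room temperature.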

[1] abbreviates: Lab A, read-out: Rhesus PDE2 Ki (nM) Lab A.
Setting [2] is: Lab B, read-out: Rhesus PDE2 Ki (nM) Lab B.

One may read the Ki as the dissociation constant of the complex between target and ligand, obtained from inhibition or displacement. Regarding `Cc1nc(-c2cnn(C(C)c3ccc(C4CC4)cc3F)c2)cc(=O)[nH]1` (single isomer, unassigned) [Example 91, (R)- or (S)-6-(1-(1-(4-cyclopropyl-2-fluorophenyl)ethyl)-1H-pyrazol-4-yl)-2-methylpyrimidin-4(3H)-one], the Ki under setting [1] is 60 nM.

For the compound `COc1ccc(Cc2nc(-c3cnn(C(C)c4ccc(S(F)(F)(F)(F)F)cc4)c3)cc(=O)[nH]2)cc1OC` (single isomer, unassigned) [Example 65, (S)- or (R)-2-(3,4-dimethoxybenzyl)-6-(1-(1-(4-(pentafluorosulfanyl)phenyl)ethyl)-1H-pyrazol-4-yl)pyrimidin-4(3H)-one 4(3H)-one], the Ki is 22 nM under setting [1] and 9.9 nM under setting [2].

On to `Cc1nc(-c2cnn(C(C)c3ccc(C(F)(F)F)cc3Cl)c2)cc(=O)[nH]1` (single isomer, unassigned) [Example 83, (R)- or (S)-6-(1-(1-(2-chloro-4-(trifluoromethyl)phenyl)ethyl)-1H-pyrazol-4-yl)-2-methylpyrimidin-4(3H)-one], for which the Ki under setting [1] is 6.2 nM.

For `Cc1nc(-n2cc([C@H](CO)c3ccc(C(F)(F)F)cc3F)cn2)cc(=O)[nH]1` (single isomer, unassigned) [Example 19], the Ki under setting [2] is 105 nM.

`CCc1nc(-c2cnn(C(C)c3ccc(C(F)(F)F)cc3F)c2)cc(=O)[nH]1` (single isomer, unassigned) [Example 85, (R)- or (S)-2-ethyl-6-(1-(1-(2-fluoro-4-(trifluoromethyl)phenyl)ethyl)-1H-pyrazol-4-yl)pyrimidin-4(3H)-one]: the Ki under setting [1] stood at 14.4 nM.

For `Cc1nc(-c2ccn(C(C)c3ccc(C(F)(F)F)cc3)n2)cc(=O)[nH]1` (single isomer, unassigned) [Example 78, (S)- or (R)-2-methyl-6-(1-{(1R)-1-[4-(trifluoromethyl)phenyl]ethyl}-1H-pyrazol-3-yl)pyrimidin-4(3H)-one], the Ki under setting [2] came out at 318 nM.

`Cc1nc(-n2cc(C3(C)OCc4cc(C(F)(F)F)ccc43)cn2)cc(=O)[nH]1` (single isomer, unassigned) [Example 28]: under setting [2], the Ki worked out at 94.5 nM.

As for `CCc1nc(-c2cnn(C(C)c3ccc(C(F)(F)F)cc3F)c2)cc(=O)[nH]1` (centres unmarked) [Example 36, 2-ethyl-6-(1-(1-(2-fluoro-4-(trifluoromethyl)phenyl)ethyl)-1H-pyrazol-4-yl)pyrimidin-4(3H)-one], the Ki under setting [1] is 25.7 nM.

Take `Cc1ccc(C(C)n2cc(-c3cc(=O)[nH]c(C)n3)cn2)cc1` (centres unmarked) [Example 153, 2-methyl-6-(1-(1-(p-tolyl)ethyl)-1H-pyrazol-4-yl)pyrimidin-4(3H)-one]: the Ki under setting [2] was found to be 825 nM.

For the compound `Cc1nc(-c2cnn(C(C)c3ccc(C(F)(F)F)cc3F)c2)cc(=O)[nH]1` (single isomer, unassigned) [Example 135, (R)- or (S)-6-(1-(1-(2-fluoro-4-(trifluoromethyl)phenyl)ethyl)-1H-pyrazol-4-yl)-2-methylpyrimidin-4(3H)-one], under setting [2], the Ki is 109 nM.

With `Cc1nc(-c2cnn(C(C)c3ccc(C(F)(F)F)cc3)c2)cc(=O)[nH]1` (centres unmarked) [Example 126, 2-methyl-6-(1-(1-(4-(trifluoromethyl)phenyl)ethyl)-1H-pyrazol-4-yl)pyrimidin-4(3H)-one], the Ki under setting [2] came out at 306 nM.

As for `Cc1nc(-c2cnn(C(C)c3ccc(C(F)(F)F)cc3)c2C)cc(=O)[nH]1` (single isomer, unassigned) [Example 82, (S)- or (R)-2-methyl-6-(5-methyl-1-{(1R)-1-[4-(trifluoromethyl)phenyl]ethyl}-1H-pyrazol-4-yl)pyrimidin-4(3H)-one], the Ki under setting [2] was 192 nM.

As to `Cc1nc(-c2cnn(C(C)c3ccc(OC(F)(F)F)cc3)c2)cc(=O)[nH]1` (single isomer, unassigned) [Example 127, (R)- or (S)-2-methyl-6-(1-(1-(4-(trifluoromethoxy)phenyl)ethyl)-1H-pyrazol-4-yl)pyrimidin-4(3H)-one], the Ki under setting [2] amounted to 130 nM.

As to `Cc1nc(-c2cnn(C(C)c3ccc(S(F)(F)(F)(F)F)cc3)c2)cc(=O)[nH]1` (single isomer, unassigned) [Example 62, (R)- or (S)-2-methyl-6-(1-(1-(4-(pentafluorosulfanyl)phenyl)ethyl)-1H-pyrazol-4-yl)pyrimidin-4(3H)-one], the Ki under setting [2] turned out to be 143 nM.

As for `CCc1ccc(C(C)n2cc(-c3cc(=O)[nH]c(C)n3)cn2)c(Cl)c1` (single isomer, unassigned) [Example 99, (R)- or (S)-6-(1-(1-(2-chloro-4-ethylphenyl)ethyl)-1H-pyrazol-4-yl)-2-methylpyrimidin-4(3H)-one], under setting [1], the Ki was 10.7 nM.

For the compound `CCC(c1ccc(C(F)(F)F)cc1F)n1cc(-c2cc(=O)[nH]c(C)n2)cn1` (centres unmarked) [Example 33, 6-(1-(1-(2-fluoro-4-(trifluoromethyl)phenyl)propyl)-1H-pyrazol-4-yl)-2-methylpyrimidin-4(3H)-one], the Ki came to 36.6 nM under setting [1] and 19.7 nM under setting [2].

For the compound `COc1ccc(Cc2nc(-c3cnn(C(C)c4ccc(C(F)(F)F)cc4F)c3)cc(=O)[nH]2)cc1` (single isomer, unassigned) [Example 138, (R)- or (S)-6-(1-(1-(2-fluoro-4-(trifluoromethyl)phenyl)ethyl)-1H-pyrazol-4-yl)-2-(4-methoxybenzyl)pyrimidin-4(3H)-one], the inhibition constant (Ki) reads like this: under setting [1], 5.6 nM; under setting [2], 1.6 nM.

For the compound `Cc1nc(-c2cnn(C3(c4ccc(C(F)(F)F)cc4F)CCC3)c2)cc(=O)[nH]1` [Example 37, 6-(1-(1-(2-fluoro-4-(trifluoromethyl)phenyl)cyclobutyl)-1H-pyrazol-4-yl)-2-methylpyrimidin-4(3H)-one], the Ki under setting [1] is 13.1 nM.

For `Cc1nc(-n2cc(C(C)c3ccc(C(F)(F)F)cc3F)cn2)cc(=O)[nH]1` (single isomer, unassigned) [Example 52, (R)- or (S)-6-(4-(1-(2-fluoro-4-(trifluoromethyl)phenyl)ethyl)-1H-pyrazol-1-yl)-2-methylpyrimidin-4(3H)-one], the Ki under setting [2] turned out to be 7.2 nM.

For the compound `Cc1nc(-c2cnn(C(c3ccc(C(F)(F)F)cc3F)C(C)C)c2)cc(=O)[nH]1` (centres unmarked) [Example 34, 6-(1-(1-(2-fluoro-4-(trifluoromethyl)phenyl)-2-methylpropyl)-1H-pyrazol-4-yl)-2-methylpynmidin-4(3H)-one], the Ki reads like this: under setting [1], 54.6 nM; under setting [2], 26.9 nM.

On to `COc1ccc(Cc2nc(-c3cnn(C(C)c4ccc(C(F)(F)F)cc4F)c3)cc(=O)[nH]2)cc1F` (single isomer, unassigned) [Example 147, (S)- or (R)-6-(1-(1-(2-fluoro-4-(trifluoromethyl)phenyl)ethyl)-1H-pyrazol-4-yl)-2-(3-fluoro-4-methoxybenzyl)pyrimidin-4(3H)-one], for which the Ki under setting [1] is 3.6 nM.

For `COc1cc(Cc2nc(-c3cnn(C(C)c4ccc(C(F)(F)F)cc4F)c3)cc(=O)[nH]2)ccc1F` (single isomer, unassigned) [Example 142, (R)- or (S)-2-(4-fluoro-3-methoxybenzyl)-6-(1-(1-(2-fluoro-4-(trifluoromethyl)phenyl)ethyl)-1H-pyrazol-4-yl)pyrimidin-4(3H)-one], the Ki came out at 3.3 nM under setting [1] and 1.4 nM under setting [2].

Regarding `Cc1nc(-n2ccc([C@H](C)c3ccc(C(F)(F)F)cc3)n2)cc(=O)[nH]1` (single isomer, unassigned) [Example 5], under setting [2], the Ki is 285 nM.

`CCc1ccc(C(C)n2cc(-c3cc(=O)[nH]c(C)n3)cn2)c(F)c1` (single isomer, unassigned) [Example 101, (R)- or (S)-6-(1-(1-(4-ethyl-2-fluorophenyl)ethyl)-1H-pyrazol-4-yl)-2-methylpyrimidin-4(3H)-one]: under setting [1], the Ki stood at 25.4 nM.

For `Cc1nc(-c2cnn(C(C)c3ccc(S(F)(F)(F)(F)F)cc3)c2)cc(=O)[nH]1` (single isomer, unassigned) [Example 63, (S)- or (R)-2-methyl-6-(1-(1-(4-(pentafluorosulfanyl)phenyl)ethyl)-1H-pyrazol-4-yl)pyrimidin-4(3H)-one], the Ki under setting [2] was found to be 99.3 nM.

For `COc1cccc(Cc2nc(-c3cnn(C(C)c4ccc(C(F)(F)F)cc4F)c3)cc(=O)[nH]2)c1` (single isomer, unassigned) [Example 140, (R)- or (S)-6-(1-(1-(2-fluoro-4-(trifluoromethyl)phenyl)ethyl)-1H-pyrazol-4-yl)-2-(3-methoxybenzyl)pyrimidin-4(3H)-one], the Ki was found to be 3 nM under setting [1] and 0.8 nM under setting [2].
